# Source: PMC8389614, “A Comparison of Acute Pharmacological Effects of Methylone and MDMA Administration in Humans and Oral Fluid Concentrations as Biomarkers of Exposure” (Biology, 2021)
# Assay: Oral fluid to blood (OF/B) concentration ratio and plasma concentration
# Conditions: human
smiles,measurement,setting,value
"CNC(C)C(=O)c1ccc(C)cc1 (stereo not shown) [mephedrone, 4-methylmethcathinone]",Kp,"oral, 200 mg",22.3
same,Kp,"po, 100 mg",49.4
same,Kp,"po, 150 mg",4.28
same,Kp,"po, 200 mg",11.7
